For 15 molecules, TGI results are on record in PubChem BioAssay (NCI).

Among the test systems are A549 NSCLC; HCC-2998 colon; IGROV1 ovarian; OVCAR-8 ovarian; SK-MEL-2 melanoma; SK-OV-3 ovarian; SN12C renal; T-47D breast; HL-60(TB) leukemia; CCRF-CEM leukemia.
What all share (assay): inhibition of tumour cell growth, NCI panel, 48 h

SMILES strings stand for the structures.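 Cells were grown in 96-well plates and exposed to each compound for 48 hours at five concentrations; endpoints were interpolated linearly between bracketing concentrations, or set to the highest concentration if not reached. TGI denotes the concentration required for complete inhibition of growth.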 Some results are limits rather than exact numbers.

Consider `N#CCCN(CCC#N)c1ccc(C(N=Nc2ccccc2)=Nc2ccc(F)cc2)cc1`, for which the TGI in the assay with A549 NSCLC, in the assay on HCC-2998 colon, in the assay with IGROV1 ovarian, in the assay with OVCAR-8 ovarian, in the assay with SK-MEL-2 melanoma and with SK-OV-3 ovarian was over 100 µM each time. Besides, the TGI in the assay on SN12C renal and in the assay on T-47D breast was over 100 µM in each case.

With `COc1ccc(C(=O)/C=C/SC(=NC#N)SC)cc1`, the TGI in the assay on A549 NSCLC was over 100 µM; in the assay with HL-60(TB) leukemia, over 100 µM; in the assay with IGROV1 ovarian, 57.3 µM; with OVCAR-8 ovarian it was 46.8 µM; with SK-MEL-2 melanoma it was 43.8 µM; with SK-OV-3 ovarian, 47.5 µM. Also, the values for the TGI in the assay with SN12C renal and with T-47D breast were 75.2 µM and 47.3 µM, respectively.

As for `CO[P@@]1(=O)O[C@@H](c2ccccc2)[C@H](O)[C@]1(O)c1ccccc1`, the TGI in the assay with A549 NSCLC, in the assay with CCRF-CEM leukemia, with HL-60(TB) leukemia, in the assay with IGROV1 ovarian, in the assay on OVCAR-8 ovarian and in the assay on SK-MEL-2 melanoma was over 100 µM each time. Also, the TGI in the assay on SK-OV-3 ovarian, in the assay on SN12C renal and with T-47D breast was over 100 µM throughout.

Take `CCN(CC)C(=S)N/N=C(/c1ccccc1)c1ccccn1`: the TGI was over 39.7 µM with A549 NSCLC; 1.09 µM with CCRF-CEM leukemia; 37 µM in the assay with HCC-2998 colon; 1.59 µM in the assay on HL-60(TB) leukemia; 6.72 µM in the assay with IGROV1 ovarian; 11.3 µM in the assay with OVCAR-8 ovarian. In addition, the TGI is 26.2 µM in the assay on SK-MEL-2 melanoma, 38.6 µM in the assay with SK-OV-3 ovarian and 1.35 µM in the assay with SN12C renal.

In the case of `CC(C)=CCC[C@@H](C)C1=C(Nc2ccccc2F)C(O)=C(C)C(=O)C1=O`, the TGI in the assay on A549 NSCLC was over 44.9 µM; in the assay on CCRF-CEM leukemia it was 3.9 µM; in the assay with HCC-2998 colon it was 38.1 µM; with IGROV1 ovarian, over 39.1 µM; in the assay on OVCAR-8 ovarian, over 30.2 µM; in the assay on SK-MEL-2 melanoma, 42.1 µM. Also, the values for the TGI in the assay on SK-OV-3 ovarian, in the assay on SN12C renal and in the assay on T-47D breast were 73.3 µM, over 100 µM and 64.1 µM, respectively.

Take `C=C1[C@@H]2CCC3[C@]4(C)C(CC[C@@]5(C)C(=O)O[C@H](O)[C@@H]45)[C@H](O)[C@]3(C2)[C@H]1OC1OC(CO)C(O)C(O)C1O` (some centres undefined): the TGI in the assay with A549 NSCLC, in the assay on HL-60(TB) leukemia, with IGROV1 ovarian, in the assay with OVCAR-8 ovarian, with SK-MEL-2 melanoma and in the assay on SK-OV-3 ovarian was over 50 µM throughout. Besides, the TGI in the assay on SN12C renal and in the assay on T-47D breast was over 50 µM throughout.

`CCOC(=O)c1c(SCc2cc(=O)[nH]c(=O)[nH]2)n(-c2ccccc2)c(=S)n(-c2ccccc2)c1=O`: the TGI in the assay with A549 NSCLC, with CCRF-CEM leukemia, with HCC-2998 colon, in the assay with IGROV1 ovarian, in the assay with OVCAR-8 ovarian and in the assay with SK-MEL-2 melanoma was over 100 µM each time. The TGI in the assay with SN12C renal and in the assay with T-47D breast was over 100 µM in each case.

As for `C=C(C)[C@H]1CC23C(=O)[C@@](C)(C[C@H]2C1(C)C)C(=O)C(C(=O)C(C)C)=C3O`, the TGI amounted to 57.9 µM with A549 NSCLC; 24.9 µM in the assay on CCRF-CEM leukemia; 41.6 µM in the assay with HL-60(TB) leukemia; 32.7 µM in the assay on IGROV1 ovarian; 40.2 µM in the assay on OVCAR-8 ovarian; 33.6 µM in the assay with SK-MEL-2 melanoma. Besides, the TGI is 32.9 µM with SN12C renal and over 100 µM in the assay with T-47D breast.

For `CSc1nc(Cl)c2c(n1)Sc1nc3ccccc3n1C2O` (centres undefined), the TGI with A549 NSCLC is over 96.4 µM; with CCRF-CEM leukemia, 24.6 µM; with HCC-2998 colon, 13.6 µM; with IGROV1 ovarian, over 100 µM; with OVCAR-8 ovarian, over 29.5 µM; in the assay with SK-MEL-2 melanoma, over 47.4 µM. The TGI in the assay on SK-OV-3 ovarian, in the assay with SN12C renal and in the assay with T-47D breast was over 100 µM throughout.

`CN1C2=Nc3n(c4ccccc4[n+]3C)CN2c2ccccc21`: the TGI in the assay with A549 NSCLC is over 100 µM; in the assay on CCRF-CEM leukemia, over 100 µM; in the assay on HL-60(TB) leukemia, over 100 µM; in the assay with IGROV1 ovarian, over 100 µM; with OVCAR-8 ovarian it was over 100 µM; with SK-MEL-2 melanoma, 41.8 µM. Further, the values for the TGI in the assay with SK-OV-3 ovarian, in the assay on SN12C renal and in the assay on T-47D breast were over 100 µM, 93.7 µM and 55.1 µM, respectively.

Regarding `CCCn1cc2c3c(cccc31)C1C=C(C)CN(C)C1C2` (centres undefined), the TGI in the assay on A549 NSCLC was 70.5 µM; with CCRF-CEM leukemia, 44.9 µM; in the assay on HCC-2998 colon it was 38 µM; in the assay on HL-60(TB) leukemia, 5.56 µM; with IGROV1 ovarian, 60.4 µM; in the assay with OVCAR-8 ovarian it was 66.5 µM. Also, the TGI worked out at 63.4 µM in the assay with SK-MEL-2 melanoma, 71.4 µM in the assay on SK-OV-3 ovarian and 60.9 µM in the assay with SN12C renal.

In the case of `O=[N+]([O-])c1ccc(-c2csc(=[N+]3CCCCC3)s2)cc1`, the TGI is over 100 µM in the assay on A549 NSCLC; over 100 µM in the assay with CCRF-CEM leukemia; over 100 µM with HCC-2998 colon; over 86.6 µM with HL-60(TB) leukemia; over 100 µM in the assay on IGROV1 ovarian; over 100 µM in the assay with OVCAR-8 ovarian. The TGI was 60.2 µM with SK-MEL-2 melanoma, over 100 µM with SK-OV-3 ovarian and over 100 µM in the assay on SN12C renal.

Regarding `CSc1ncc2c(n1)-c1ccccc1OC2NC1CC1` (centres undefined), the TGI with A549 NSCLC is over 100 µM; in the assay on CCRF-CEM leukemia, over 100 µM; with HL-60(TB) leukemia, 73.3 µM; in the assay with IGROV1 ovarian, over 100 µM; in the assay with OVCAR-8 ovarian it was over 100 µM; with SK-MEL-2 melanoma it was over 100 µM. In addition, the TGI with SK-OV-3 ovarian is over 100 µM; with SN12C renal, over 100 µM; in the assay with T-47D breast, 91.7 µM.

Regarding `C=CN(C=C)C(=O)Cn1cc(-c2ccccc2)nn1`, the TGI with A549 NSCLC, with CCRF-CEM leukemia, with HCC-2998 colon, in the assay with HL-60(TB) leukemia, in the assay on IGROV1 ovarian and in the assay on OVCAR-8 ovarian was over 100 µM in each case. Besides, the TGI in the assay with SK-MEL-2 melanoma and with SN12C renal was over 100 µM in each case.

As for `CC1(C)OCC(C2OC(C)(C)OC2[C@H]2O[C@@]3(O)[C@H]4[C@H](C=CC[C@@H]42)[C@@H](OCc2ccccc2)[C@H](OCc2ccccc2)[C@H]3OCc2ccccc2)O1` (some centres undefined), the TGI in the assay on A549 NSCLC was over 100 µM; with CCRF-CEM leukemia, over 100 µM; with HL-60(TB) leukemia it was 42.4 µM; with IGROV1 ovarian, over 100 µM; with OVCAR-8 ovarian, over 100 µM; in the assay with SK-MEL-2 melanoma, 98.5 µM. In addition, the TGI in the assay with SK-OV-3 ovarian, with SN12C renal and in the assay on T-47D breast was over 100 µM in each case.
